Legend:
Format in all cases: cell-based, rat
mixed glial cells [1] = test: Griess assay (nitrite production) in mixed glial cells; details: 30 min
Protocol: To test the antioxidant capacity of these new molecules Griess assay was performed. The Griess Reagent System is based in the conversion of sulphanilamide into an azo-compound with the presence of N-1-napthylenediamide dihydrochloride (NED) under acidic condition. 1.7 × 10^4 mixed glial cells were cultured in 98 μL of the specific medium in a 96 well plate overnight. After 24 h the media from each well of the cell culture was transferred into a 96 well plate and then 50 µL of the sulphanilamide solution was added to each well. After 5–10 min of incubation at room temperature (rt), 50 µL of the NED Solution were dispensed to all wells and they were incubated at rt for other 5–10 min. Absorbance was measured within 30 min in the plate reader GENiosPro with a filter between 520 nm and 550 nm. This experiment was performed 3–5 replicates. Concentration of NO¬¬¬¬2¯ in each sample was determined by comparison to a Nitrite standard reference curve.

mixed glial cells [2] = test: CellTiter 96 AQueous One (MTS) cell viability, ligands alone, mixed glial cells; details: for toxicity in vitro (cell viability): compared with CCPA and ZM241385; for cell viability vs. control: ligand alone
Protocol: Newborn male Wistar rats were sacrificed and mixed glial cell cultures were obtained from the cerebral cortices. Cerebral cortices were dissected, and meninges were cleared away. Tissues were treated with trypsin solution (trypsin 0.05% (w/v) trypsin-EDTA 5 mM) for 25 min at 37 °C. The tissue was fully disaggregated by pipetting and the dissociated cells were seeded in a 6-well plate with Dulbecco’s modified Eagle’s/High glucose medium enriched with 100 U/mL penicillin, 100 µg/mL streptomycin and 10% FBS. Fresh medium was changed the next day and then every 3 days decreasing the quantity of FBS. All experiments were carried out after 7–9 days of plating.
Mixed glial cell cultures were divided into 2 groups, one to study A1AR partial agonists and another for A2AAR antagonists. Cells from the first group were pre-treated with 2 µL at three different concentrations of C1 for 15, 30 or 60 min and then with further addition of a pro-inflammatory cocktail of cytokines (TNF-α, 20 ng/mL; IL-1β, 20 ng/mL; IFN-γ 20 ng/mL) for 48 h. […] To study C2 cells were pre-treated with the same CK cocktail for 48 h and then with 2 µL of C2 at three different concentrations for 15, 30, or 60 min (Scheme 1). ZM241385, a well known A2AAR antagonist, was used as reference compound. Furthermore, ligands and CK were tested alone for 15, 30 or 60 min and 48 h respectively.
(§1) 1.7 × 10^4 mixed glial cells were cultured in 98 μL of the specific medium in a 96 well plate overnight. The next day 2 μL of ligand or CK cocktail were added to the well. After all treatments, 20 µL of CellTiter 96® AQueous One Solution Reagent was added in a final volume of 100 µL. Absorbance was read at 490 nm using the plate reader GENiosPro. Cell viability was calculated as percentage using the following formula: Cell viability =OD mean of treated cells/OD mean of control cells × 100

neuronal cells = test: Cell viability in primary neuronal cells with or without CK and AR antagonists; details: for protection of neurons against neuroinflammatory insult (cell viability): 30 min, with CK
Protocol: Neurons were obtained from hippocampus or cortex of embryos. Briefly, pregnant rat was scarified and the uterus removed. Embryos were taken out from the uterus and brains were obtained. After removing the meninges, hippocampus and cortex were dissected and homogenated with tweezers. The result was incubated with trypsin for 15 min at 37 °C and then centrifuged 2 min at 1000 rpm. The pellet was resuspended with 15 mL of HBSS/0.37% Glucose/30% FBS and centrifuged as before for three times. Finally, the pellet was resuspended with 15 mL of neurobasal media supplemented with 25 µM of glutamine. The result was filtered and plated. Cells were plated in 24 well plates at 10^5 cells/well [26].
as §1

mixed glial cells [3] = test: Hoechst assay, cell area and circularity in mixed glial cells; details: compound 1 pre-treatment, compound 2 post-treatment, with CK cocktail
Protocol: This assay was carried out using Hoechst 33258. 6 × 10^5 mixed glial cells were seeded in a six well plate. After 24 h the media was eliminated, and cell cultures washed with PBS. Then, they were washed with acetic acid/methanol solution 50:50, again washed with PBS and incubated 10 min with a fixative solution. After this, cells were cleaned with distilled water and incubated light protected for 30 min at rt with Hoechst (1 µg/mL). Finally, the dye was discarded, and cells washed with water. Glycerol solution was added and cells were observed under an Olympus microscope. The cell area and circularity were measured using ImageJ as image analyzing software. Area and circularity were calculated as percentage using the following formula:(1) Area or circularity =area or circularity of treated cells/area or curcularity of control cells × 100

Compound	antioxidant activity (Griess) (mixed glial cells [1]; 5.5 µM, alone and in combination with CK)	toxicity in vitro (cell viability) (mixed glial cells [2])	cell viability vs. control (mixed glial cells [2]; 5.5 µM, 30 min) [%]	cell viability vs. control (mixed glial cells [2]; 30 µM, 15 min) [%]	protection of neurons against neuroinflammatory insult (cell viability) (neuronal cells; C1 5.5 µM, C2 10 nM)	cell viability, effect against A1AR antagonist DPCPX (neuronal cells; neurons, C1 5.5 µM, DPCPX 100 nM, in presence of CK)	cell area and circularity (Hoechst), effect against CK aggression (mixed glial cells [3])	nitrite levels in presence of CK cocktail (mixed glial cells [1]; 10 nM, after CK cocktail)	levels of nitrite produced (mixed glial cells [1]; 10 nM, alone)	cell viability vs. control (mixed glial cells [2]; 10 nM, 15 min) [%]	cell viability vs. control (mixed glial cells [2]; 10 nM, 30 min) [%]	cell viability vs. control (mixed glial cells [2]; 10 nM, 60 min) [%]	cell viability vs. control (mixed glial cells [2]; 60 nM, tendency to toxicity) [%]	cell viability, combination with A2AAR antagonist SCH58261 (neuronal cells; neurons, C2 10 nM, SCH58261 50 nM)
OC[C@H]1O[C@@H](n2cnc3c(NC4CCCC4)nc(Cl)nc32)C[C@@H]1O [Compound C1, 2-chloro-N^6-cyclopentyl-2′-deoxyadenosine]	did not show any antioxidant activity	no toxic effect	116 ± 1.7	117 ± 1.3	beneficial effects in protecting neurons	partially counteract the effect of DPCPX	protective effect	–	–	–	–	–	–	–
CCn1c(Cl)nc2c(N)nc(OCCc3ccccc3)nc21 [Compound C2, 8-chloro-9-ethyl-2-phenethoxyadenine]	–	no toxic effect	–	–	beneficial effects in protecting neurons	–	protective effect	able to decrease the high nitrite levels	lower than those obtained in control	110 ± 2.7	127 ± 3.1	125 ± 4.3	~80	did not exhibited a synergic effect

Reference: publication PMC7409197, “Adenosine Receptors as Neuroinflammation Modulators: Role of A1 Agonists and A2A Antagonists” (Cells, 2020)
